Like-named read-outs stand apart in the source and are kept apart here.
Target: T1, full length AKT E17K (Homo sapiens, UniProt P31749, E17K)
T1 construct: host or cells: HEK-293 (ATCC CRL-1573)
Assay: NanoBRET Target Engagement (TE) Intracellular Kinase Assay
Assay type: cell-based
Description: The NanoBRET™ Target Engagement (TE) Intracellular Kinase Assays are based on the NanoBRET™ System (Promega Corporation), an energy transfer technique designed to measure molecular proximity in living cells. The NanoBRET™ TE Assays measure the apparent affinity of test compounds by competitive displacement of the NanoBRET™ tracer compound, which is a cell permeable molecule engineered to be reversibly bound to a NanoLuc® luciferase-kinase fusion expressed in cells. For compound screening, when a test compound binds to the selected kinase, the BRET signal is attenuated. […] All cells were evaluated for viability prior to transfection and optimization of the transfection was done prior to experimentation. […] Following transfection, cells were washed and resuspended in Opti-MEM. NanoBRET assays were performed in white, 384-well plates (Corning) at a density of 2×10^5 cells/well. All example compounds were prepared as concentrated stock solutions in DMSO (Sigma-Aldrich). Compounds are dissolved in DMSO to make 10 mM stock solution. […] A Labcyte ECHO 550 compound dispenser was used to facilitate compound transfer directly to cells. Cells were equilibrated for 2 hr with energy transfer probes and example compound prior to BRET measurements. […] For target engagement analysis, the energy transfer probes were added to the cells at concentrations optimized for the target in question (AKT E17K). Following compound incubation, NanoBRET NanoGlo Substrate (Promega Cat #Ni57D) and Extracellular Nanoluc Inhibitor (Promega Cat #N235C) was added according to the manufacturer's recommended protocol, and luminescence was measured on Envision Reader (Perkin Elmer) Multimode Luminometer equipped with 450 nm BPfilter (donor) and 600 nm LPfilter (acceptor), using 0.5 s integration time. Milli-BRET units (mBU) are calculated by multiplying the raw BRET values by 1000. Apparent tracer affinity values (EC50) were determined using the sigmoidal dose-response (variable slope). Competitive displacement data were then plotted and data were fit to determine the EC50 value for each example compound.

[1] = read-out: NanoBRET AKT1E17K EC50, HEK-293 cells transfected with NanoLuc-AKT E17K, competitive displacement of NanoBRET tracer, 2 hr equilibration, 10-point 3-fold dilution

T1 sequence (P31749 whole entry E17K): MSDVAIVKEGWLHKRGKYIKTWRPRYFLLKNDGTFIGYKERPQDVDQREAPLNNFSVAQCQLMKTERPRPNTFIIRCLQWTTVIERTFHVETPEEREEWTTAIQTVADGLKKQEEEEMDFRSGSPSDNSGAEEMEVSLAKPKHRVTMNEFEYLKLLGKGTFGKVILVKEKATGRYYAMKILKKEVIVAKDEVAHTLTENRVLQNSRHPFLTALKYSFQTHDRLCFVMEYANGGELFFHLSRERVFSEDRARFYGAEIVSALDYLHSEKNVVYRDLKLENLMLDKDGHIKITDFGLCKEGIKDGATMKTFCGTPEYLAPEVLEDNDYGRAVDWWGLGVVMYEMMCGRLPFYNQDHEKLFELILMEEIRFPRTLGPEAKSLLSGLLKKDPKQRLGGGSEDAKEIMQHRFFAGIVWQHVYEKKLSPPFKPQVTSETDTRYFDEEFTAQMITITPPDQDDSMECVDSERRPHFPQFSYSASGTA

SMILES	EC50 [nM]	EC50 [1] [nM]
COc1c(N2CCC(NCc3ccc(-n4c(-c5cccnc5N)nc5ccc(-c6ccccc6)nc54)cc3)CC2)c(=O)c1=O [Example 77, 3-(4-((4-(2-(2-aminopyridin-3-yl)-5-phenyl-3H-imidazo[4,5-b]pyridin-3-yl)benzyl)amino)piperidin-1-yl)-4-methoxycyclobut-3-ene-1,2-dione]	15 to 60	
CCOc1c(NC2CCN(Cc3ccc(-n4c(-c5cccnc5N)nc5ccc(-c6ccccc6)nc54)cc3)CC2)c(=O)c1=O [Example 12, 3-((1-(4-(2-(2-Aminopyridin-3-yl)-5-phenyl-3H-imidazo[4,5-b]pyridin-3-yl)benzyl)piperidin-4-yl)amino)-4-ethoxycyclobut-3-ene-1,2-dione]	15 to 60	
Nc1ncccc1-c1nc2ccc(-c3ccccc3)nc2n1-c1ccc(CNC(=O)c2cccc(Nc3c(O)c(=O)c3=O)c2)cc1 [Example 43, N-(4-(2-(2-Aminopyridin-3-yl)-5-phenyl-3H-imidazo[4,5-b]pyridin-3-yl)benzyl)-3-((2-hydroxy-3,4-dioxocyclobut-1-en-1-yl)amino)benzamide]	> 600	
COc1c(N2CC3(CCN(Cc4ccc(-n5c(-c6cccnc6N)nc6ccc(-c7ccccc7)nc65)cc4)CC3)C2)c(=O)c1=O [Example 53, 3-(7-(4-(2-(2-Aminopyridin-3-yl)-5-phenyl-3H-imidazo[4,5-b]pyridin-3-yl)benzyl)-2,7-diazaspiro[3.5]nonan-2-yl)-4-methoxycyclobut-3-ene-1,2-dione]		< 15
COc1c(N2CCC3(CC2)CN(Cc2ccc(-n4c(-c5cccnc5N)nc5ccc(-c6ccccc6)nc54)cc2)C3)c(=O)c1=O [Example 60, 3-(2-(4-(2-(2-Aminopyridin-3-yl)-5-phenyl-3H-imidazo[4,5-b]pyridin-3-yl)benzyl)-2,7-diazaspiro[3.5]nonan-7-yl)-4-methoxycyclobut-3-ene-1,2-dione]		< 15
COc1c(NC2CCN(Cc3ccc(-n4c(-c5cccnc5N)nc5cc(-c6ccccc6)cnc54)cc3)CC2)c(=O)c1=O [Example 10, 3-((1-(4-(2-(2-Aminopyridin-3-yl)-6-phenyl-3H-imidazo[4,5-b]pyridin-3-yl)benzyl)piperidin-4-yl)amino)-4-methoxycyclobut-3-ene-1,2-dione]		< 15
COc1c(NC2CCN(Cc3ccc(-n4c(-c5cccnc5N)nc5ccc(-c6ccccc6)nc54)cc3)CC2)c(=O)c1=O [Example 17, 3-((1-(4-(2-(2-Aminopyridin-3-yl)-5-phenyl-3H-imidazo[4,5-b]pyridin-3-yl)benzyl)piperidin-4-yl)amino)-4-methoxycyclobut-3-ene-1,2-dione]		< 15
COc1c(NC2CN(Cc3ccc(-n4c(-c5cccnc5N)nc5ccc(-c6ccccc6)nc54)cc3)C2)c(=O)c1=O [Example 51, 3-((1-(4-(2-(2-Aminopyridin-3-yl)-5-phenyl-3H-imidazo[4,5-b]pyridin-3-yl)benzyl)azetidin-3-yl)amino)-4-methoxycyclobut-3-ene-1,2-dione]		< 15
COc1c(NC2CC3(CCN(Cc4ccc(-n5c(-c6cccnc6N)nc6ccc(-c7ccccc7)nc65)cc4)CC3)C2)c(=O)c1=O [Example 35, 3-((7-(4-(2-(2-Aminopyridin-3-yl)-5-phenyl-3H-imidazo[4,5-b]pyridin-3-yl)benzyl)-7-azaspiro[3.5]nonan-2-yl)amino)-4-methoxycyclobut-3-ene-1,2-dione]		< 15
COc1c(N2CCN(Cc3ccc(-n4c(-c5cccnc5N)nc5ccc(-c6ccccc6)nc54)cc3)CC2)c(=O)c1=O [Example 21, 3-(4-(4-(2-(2-Aminopyridin-3-yl)-5-phenyl-3H-imidazo[4,5-b]pyridin-3-yl)benzyl)piperazin-1-yl)-4-methoxycyclobut-3-ene-1,2-dione]	15 to 60	
COc1c(N2CCCN(Cc3ccc(-n4c(-c5cccnc5N)nc5ccc(-c6ccccc6)nc54)cc3)CC2)c(=O)c1=O [Example 38, 3-(4-(4-(2-(2-Aminopyridin-3-yl)-5-phenyl-3H-imidazo[4,5-b]pyridin-3-yl)benzyl)-1,4-diazepan-1-yl)-4-methoxycyclobut-3-ene-1,2-dione]		< 15
